# Tests used:
# medulloblastoma cells = settings: refs [25,31]; cited from earlier work
# caspase-3/7 [1] = experiment: Caspase-3/7 activity assay, 4T1 cells; type: cell-based, murine; settings: 4T1, 5 hours, vs DMSO
# Experimental: (§1) Caspase-3/7 activity assay. The Caspase-3/7 Fluorescence Assay Kit (Cayman, Ann Arbor, MI, USA) was used to detect the activation of caspase-3/7 and the assay was performed according to the manufacturer's instructions. Briefly, MDA-MB-231, SUM159, and 4T1 cells were seeded in a 96-well plate in triplicate. After overnight incubation, cells were treated with either LLL12B or DMSO for 5 hours. Cells were lysed and processed to measure caspase-3/7 activity and the fluorescence intensity was read (excitation=485 nm; emission=535 nm).
# STAT3 = experiment: IL-6 induced STAT3 phosphorylation, Western blot, MDA-MB-231 cells; type: cell-based, human; settings: pretreated 2 hours serum-free, 50 ng/ml IL-6 30 minutes
# Experimental: (A) The chemical structures of LLL12B and LLL12. The carbamate ester bond of LLL12B is hydrolytically cleaved by the tumor-associated plasmin to release LLL12. (B) SUM159 cells were seeded in a 6-well plate and treated with LLL12B for 8 hours. Cells were stained with Phospho-Stat3 (Tyr705) and DAPI (indicated by arrows). Green: P-STAT3 (Y705); Blue: DAPI. T47D (C) and MDA-MB-231 (D) breast cancer cells were pretreated with DMSO or LLL12B in a serum-free medium for 2 hours and stimulated with 50 ng/ml of IL-6, IFN-γ, or EGF for additional 30 minutes. Cells were collected and analyzed by Western blot. GAPDH served as a protein loading control.
# Western blot. Cells were collected and total protein was extracted using cell lysis buffer (Cell Signaling Technology, Danvers, MA, USA). Protein concentration was determined using the Pierce BCA Protein Assay Kit (Thermo Fisher Scientific, Waltham, MA, USA) according to the manufacturer's instructions. Equal amounts of protein were separated by 10% SDS-PAGE gels and transferred to PVDF membranes. Membranes were blocked in 5% non-fat milk at room temperature and probed with specific antibodies P-STAT3 (Y705), STAT3, Cyclin D1, Cleaved Caspase-3, P-STAT1 (Y701), STAT1, P-ERK, ERK or GAPDH (1:1000, Cell Signaling Technology, Danvers, MA, USA) at 4° C. overnight. […]
# SUM159 cells [2] = experiment: Colony formation assay, SUM159 cells; type: cell-based, human; settings: SUM159, 24 hours treatment, 7 days drug-free, vs DMSO
# Experimental: Colony formation assay. MDA-MB-231, SUM159, and 4T1 cells were seeded in a 6-well plate at a density of 1000 cells/well and treated with DMSO or LLL12B for 24 hours, and then cultured in a drug-free culture medium for 7 days. Colonies were fixed with methanol for 30 min and stained with 1% crystal violet in 25% methanol for 2 hours at room temperature.
# caspase-3/7 [3] = experiment: Caspase-3/7 activity assay, MDA-MB-231 cells; type: cell-based, human; settings: MDA-MB-231, 5 hours, vs DMSO
# Experimental: as §1
# 4T1 cells = experiment: Wound healing assay, 4T1 cells; type: cell-based, murine; settings: 4T1, vs DMSO
# Experimental: (§2) Wound healing assay. MDA-MB-231, SUM159, and 4T1 cells were seeded in a 6-well plate and cultured until fully confluent. A straight scratch crossing the monolayer was created using a 200 μl pipette tip and images of scratched areas were taken. Next, cells were treated with DMSO or LLL12B. Then, images were taken until the scratch of DMSO-treated cells was closed and the relative migration (%) was calculated.
# SUM159 cells [4] = experiment: Wound healing assay, SUM159 cells; type: cell-based, human; settings: SUM159, vs DMSO
# Experimental: as §2
# Given the relevance between cancer cell migration and metastasis, cell migration was evaluated using wound healing assay following LLL12B and Talazoparib treatment.
# In FIG. 12, L: LLL12B; T: Talazoparib; L0.5:0.5 μM LLL12B; L0.25:0.25 μM LLL12B; T0.5:0.5 μM Talazoparib; T10: 10 μM Talazoparib. In FIG. 13, L: LLL12B; T: Talazoparib; L0.5:0.5μ M LLL12B; T10: 10μ M Talazoparib; T20: 20μ M Talazoparib. In FIG. 14, L: LLL12B; T: Talazoparib; L0.5:0.5μ M LLL12B; T10: 10μ M Talazoparib; T20: 20μ M Talazoparib.
# L: LLL12B; A: Abemaciclib; L0.5:0.5 μM LLL12B; A2.5:2.5 μM Abemaciclib; A1: 1 μM Abemaciclib
structure (smiles),measurement,setting,value
CN(C)C(=O)Oc1cccc2c1C(=O)c1cccc(S(N)(=O)=O)c1C2=O [LLL12B],apoptosis,medulloblastoma cells,induced apoptosis
same,tumor growth,medulloblastoma cells,suppressed tumor growth
same,activation of caspase-3/7,caspase-3/7 [1],induced the activation
same,IL-6 induced phosphorylation of STAT3 (Y705),STAT3,inhibited
same,colony numbers,SUM159 cells [2],significant reduction
same,activation of caspase-3/7,caspase-3/7 [3],induced the activation
same,wound closure (cell migration),4T1 cells,effectively inhibited
same,wound closure (cell migration),SUM159 cells [4],effectively inhibited
